Data: patent US9938257B2 (Sunshine Lake Pharma Co., Ltd., priority 2015, dated 2018)

Columns and labels:
[1] = Pharmacokinetics after intravenous and oral administration in rats; type: in vivo; settings: for Clearance (CL) after iv dosing / AUC(0-t) / half-life / Vd: dose 1 mg/kg, iv dosing; for F: oral bioavailability, iv dose 1 mg/kg; for AUC(0-t) / half-life / Vd: rat, plasma; for Vd: read-out: Vss
Experimental: The compounds disclosed herein are assessed in pharmacokinetic studies in mice, rats, dogs or monkeys. The compounds are administered as a water solution, 2% HPMC+1% TWEEN®80 in water solution, 5% DMSO+5% solutol in saline, 4% MC suspension or capsule. For the intravenous administration, the animals are generally given at 0.5, 1 or 2 mg/kg dose. For the oral (p.o.) dosing, mice and rats are generally given 0.5, 1, 5 or 10 mg/kg dose, and dogs and monkeys are generally given 10 mg/kg dose. The blood samples (0.3 mL) are drawn at 0.25, 0.5, 1.0, 2.0, 3.0, 4.0, 6.0, 8.0, 12 and 24 h time points or 0.083, 0.25, 0.5, 1.0, 2.0, 4.0, 6.0, 8.0 and 24 h time points and centrifuged at 3,000 or 4000 rpm for 2 to 10 min. The plasma solutions are collected, and stored at −20° C. or −70° C. until analyzed by LC/MS/MS as described above.

[2] = biological target: Aurora-B (h) (Homo sapiens (Human), UniProt Q96GD4); assay: Aurora-B (h) kinase activity assay; type: biochemical
Aurora-B (h), sequence (Q96GD4 whole entry): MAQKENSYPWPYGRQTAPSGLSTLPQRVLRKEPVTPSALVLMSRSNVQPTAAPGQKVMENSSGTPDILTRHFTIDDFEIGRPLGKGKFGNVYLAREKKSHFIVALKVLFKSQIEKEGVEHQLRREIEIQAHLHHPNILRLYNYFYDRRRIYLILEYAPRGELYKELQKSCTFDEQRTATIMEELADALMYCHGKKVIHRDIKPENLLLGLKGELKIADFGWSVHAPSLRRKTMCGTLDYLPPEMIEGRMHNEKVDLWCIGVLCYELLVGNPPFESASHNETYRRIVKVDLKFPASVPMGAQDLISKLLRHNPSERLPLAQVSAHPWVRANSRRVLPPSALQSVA
Experimental: (§1) The above assay procedure can be used to determine the IC50 for inhibition and/or the inhibition constant, Ki. The IC50 is defined as the concentration of compound required to reduce the enzyme activity by 50% under the condition of the assay. The IC50 value is estimated by preparing a 10 point curve using a ½ log dilution series (for example, a typical curve may be prepared using the following compound concentrations: 3 μM, 1 μM, 0.3 μM, 0.1 μM, 0.03 μM, 0.01 μM, 0.003 μM, 0.001 μM, 0.0003 μM and 0 μM).
(§2) Aurora-B (h) is incubated with 8 mM MOPS pH 7.0, 0.2 mM EDTA, 30 μM AKRRRLSSLRA, 10 mM MgAcetate and [γ-^33PATP] (specific activity approx. 500 cpm/pmol, concentration as required). The reaction is initiated by the addition of the MgATP mix. After incubation for 40 minutes at room temperature, the reaction is stopped by the addition of a 3% phosphoric acid solution. 10 μL of the reaction is then spotted onto a P30 filtermat and washed three times for 5 minutes in 75 mM phosphoric acid and once in methanol prior to drying and scintillation counting.
(§3) The kinase assays described herein were performed at Millipore UK Ltd, Dundee Technology Park, Dundee DD2 1SW, UK.

[3] = biological target: JAK1 (h) (Homo sapiens (Human), UniProt P23458); assay: JAK1 (h) kinase activity assay; type: biochemical
JAK1 (h), sequence (P23458 whole entry): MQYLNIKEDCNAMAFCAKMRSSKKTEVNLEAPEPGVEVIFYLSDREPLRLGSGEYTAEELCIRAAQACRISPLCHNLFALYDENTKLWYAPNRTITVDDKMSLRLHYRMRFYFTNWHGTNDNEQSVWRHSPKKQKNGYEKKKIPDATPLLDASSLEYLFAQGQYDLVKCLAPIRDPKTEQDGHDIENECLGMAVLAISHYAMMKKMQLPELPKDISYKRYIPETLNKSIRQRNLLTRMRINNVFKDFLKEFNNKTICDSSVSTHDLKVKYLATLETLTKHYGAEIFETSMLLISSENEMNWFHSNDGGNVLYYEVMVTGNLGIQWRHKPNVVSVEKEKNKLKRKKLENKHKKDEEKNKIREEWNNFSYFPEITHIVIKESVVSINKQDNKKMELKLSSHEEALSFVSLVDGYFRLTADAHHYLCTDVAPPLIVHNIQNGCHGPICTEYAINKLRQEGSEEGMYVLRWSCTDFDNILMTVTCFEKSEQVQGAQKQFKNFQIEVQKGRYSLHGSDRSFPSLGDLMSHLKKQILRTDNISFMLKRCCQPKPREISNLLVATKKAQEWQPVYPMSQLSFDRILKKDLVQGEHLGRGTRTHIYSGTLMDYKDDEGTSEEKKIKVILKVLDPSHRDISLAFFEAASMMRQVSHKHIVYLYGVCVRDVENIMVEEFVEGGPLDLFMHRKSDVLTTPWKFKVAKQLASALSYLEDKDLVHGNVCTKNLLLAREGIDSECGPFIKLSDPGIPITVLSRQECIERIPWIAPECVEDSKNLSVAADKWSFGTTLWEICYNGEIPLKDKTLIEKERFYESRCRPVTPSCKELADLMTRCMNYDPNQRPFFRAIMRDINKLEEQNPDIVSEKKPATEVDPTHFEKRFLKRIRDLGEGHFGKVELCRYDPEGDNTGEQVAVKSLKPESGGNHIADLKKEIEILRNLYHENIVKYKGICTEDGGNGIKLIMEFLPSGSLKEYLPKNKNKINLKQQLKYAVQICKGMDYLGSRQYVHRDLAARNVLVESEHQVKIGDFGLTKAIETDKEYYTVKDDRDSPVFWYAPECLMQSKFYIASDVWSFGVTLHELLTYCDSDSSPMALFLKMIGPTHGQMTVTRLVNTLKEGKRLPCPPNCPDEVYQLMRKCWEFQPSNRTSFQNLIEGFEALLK
Experimental: as §1
JAK1 (h) is incubated with 20 mM Tris/HCl pH 7.5, 0.2 mM EDTA, 500 μM GEEPLYWSFPAKKK, 10 mM MgAcetate and [γ-^33P-ATP] (specific activity approx. 500 cpm/pmol, concentration as required). The reaction is initiated by the addition of the MgATP mix. After incubation for 40 minutes at room temperature, the reaction is stopped by the addition of 3% phosphoric acid solution. 10 μL of the reaction is then spotted onto a P30 filtermat and washed three times for 5 minutes in 75 mM phosphoric acid and once in methanol prior to drying and scintillation counting.
as §3

[4] = Compound stability in human liver microsomes; type: in vitro ADME; settings: pH 7.4; for half-life at 5 μM: human liver microsomes 0.5 mg protein/mL, compound 5 μM, NADPH 1.0 mM, 37° C., read-out: Human T1/2; for CLint scaled at 5 μM: human liver microsomes, in vivo CLint extrapolated
Experimental: (§4) Human or rat liver microsomes incubations were conducted in duplicate in polypropylene tubes. The typical incubation mixtures consisted of human or rat liver microsomes (0.5 mg protein/mL), compounds of interest (5 μM) and NADPH (1.0 mM) in a total volume of 200 μL potassium phosphate buffer (PBS, 100 mM, pH 7.4). Compounds were dissolved in DMSO and diluted with PBS such that the final concentration of DMSO was 0.05%. The enzymatic reactions were commenced with the addition of protein after a 3-min preincubation and incubated in a water bath open to the air at 37° C. Reactions were terminated at various time points (0, 5, 10, 15, 30, 60 min) by adding equal volume of ice-cold acetonitrile. The samples were stored at −80° C. until LC/MS/MS assays.
(§5) The concentrations of compounds in the incubation mixtures of human or rat liver microsomes were determined by a LC/MS/MS method. The ranges of the linearity in the concentration range were determined for each tested compounds.
(§6) A parallel incubation was performed using denatured microsomes as the negative control, and reactions were terminated at various time points (0, 15, 60 min) after incubation at 37° C.
(§7) Dextromethorphan (70 μM) was selected as the positive control, and reactions were terminated at various time points (0, 5, 10, 15, 30, 60 min) after incubation at 37° C. Both positive and negative control samples were included in each assay to ensure the integrity of the microsomal incubation system.
(§8) The concentrations of compounds in human or rat liver microsome incubations were plotted as a percentage of the relevant zero time point control for each reaction. The in vivo CLint were extrapolated (ref.: Naritomi, Y.; Terashita, S.; Kimura, S.; Suzuki, A.; Kagayama, A.; and Sugiyama, Y.; Prediction of human hepatic clearance from in vivo animal experiments and in vitro metabolic studies with liver microsomes from animals and humans. Drug Metab. Dispos., 2001, 29: 1316-1324).

[5] = Compound stability in rat liver microsomes; type: in vitro ADME; settings: pH 7.4; for half-life at 5 μM: rat liver microsomes 0.5 mg protein/mL, compound 5 μM, NADPH 1.0 mM, 37° C., read-out: Rat T1/2; for CLint scaled at 5 μM: rat liver microsomes, in vivo CLint extrapolated
Experimental: as §4, §5, §6, §7, §8

[6] = biological target: Aurora-A (h) (Homo sapiens (Human), UniProt O14965); assay: Aurora-A (h) kinase activity assay; type: biochemical
Aurora-A (h), sequence (O14965 whole entry): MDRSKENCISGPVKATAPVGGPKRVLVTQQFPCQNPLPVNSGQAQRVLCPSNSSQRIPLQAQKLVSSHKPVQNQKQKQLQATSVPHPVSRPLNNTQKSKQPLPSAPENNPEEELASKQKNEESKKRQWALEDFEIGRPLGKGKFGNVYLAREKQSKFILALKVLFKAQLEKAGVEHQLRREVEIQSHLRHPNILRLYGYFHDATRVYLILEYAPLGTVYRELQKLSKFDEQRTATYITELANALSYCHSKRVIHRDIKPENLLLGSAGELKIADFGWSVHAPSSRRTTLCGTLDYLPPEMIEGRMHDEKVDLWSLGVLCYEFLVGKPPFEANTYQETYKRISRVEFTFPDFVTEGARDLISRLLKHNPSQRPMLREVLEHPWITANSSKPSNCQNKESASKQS
Experimental: as §1
as §2, with “Aurora-A (h)” for “Aurora-B (h)”, “EDTA, 200” for “EDTA, 30”, “μM LRRASLG (Kemptide),” for “μM AKRRRLSSLRA,”, “and [γ-^33P-ATP]” for “and [γ-^33PATP]”, “of” for “of a”
as §3

Structure (SMILES)	Clearance (CL) after iv dosing [1]	F [1]	AUC(0-t) [1]	half-life [1]	Vd [1]	IC50 [2]	IC50 [3]	half-life at 5 μM [4]	CLint scaled at 5 μM [4]	half-life at 5 μM [5]	CLint scaled at 5 μM [5]	IC50 [6]
Cn1cc(Nc2ncc(Cl)c(NC3CC4CN(C(=O)NC5CC5)CC4C3)n2)cn1 (stereo not shown) [Ex. 19, 5-((5-chloro-2-((1-methyl-1H-pyrazol-4-yl)amino)pyrimidin-4-yl)amino)-N-cyclopropylhexahydrocyclopenta[c]pyrrole-2(1H)-carboxamide]	63.7 mL/min/kg	24.0%	263 ng·h/mL	21 min	0.95 L/kg	1 nM	23 nM	178 min	9.78 mL/min/kg	96.9 min	25.6 mL/min/kg	8 nM
CC(O)Cn1cc(Nc2ncc(Cl)c(NC3CC4CN(S(C)(=O)=O)CC4C3)n2)cn1 (stereo not shown) [Ex. 38, 1-(4-((5-chloro-4-((2-(methylsulfonyl)octahydrocyclopenta[c]pyrrol-5-yl)amino)pyrimidin-2-yl)amino)-1H-pyrazol-1-yl)propan-2-ol]	62.8 mL/min/kg	35.3%	270 ng·h/mL	25.2 min	1.65 L/kg	1 nM	1 nM	67.1 min	25.9 mL/min/kg	45.5 min	54.6 mL/min/kg	0.8 nM
CCNS(=O)(=O)N1CC2CC(Nc3nc(Nc4cnn(CC(C)O)c4)ncc3Cl)CC2C1 (stereo not shown) [Ex. 45, 5-((5-chloro-2-((1-(2-hydroxypropyl)-1H-pyrazol-4-yl)amino)pyrimidin-4-yl)amino)-N-ethylhexahydrocyclopenta[c]pyrrole-2(1H)-sulfonamide]	62.3 mL/min/kg	27.1%	267 ng·h/mL	39.6 min	1.97 L/kg	0.8 nM	–	–	–	–	–	5 nM
CC(C)(O)Cn1cc(Nc2ncc(Cl)c(NC3CC4CN(S(C)(=O)=O)CC4C3)n2)cn1 (stereo not shown) [Ex. 39, 1-(4-((5-chloro-4-((2-(methylsulfonyl)octahydrocyclopenta[c]pyrrol-5-yl)amino)pyrimidin-2-yl)amino)-1H-pyrazol-1-yl)-2-methylpropan-2-ol]	96 mL/min/kg	40.5%	295 ng·h/mL	38.4 min	1.88 L/kg	1 nM	2 nM	49.6 min	35 mL/min/kg	39.2 min	63.3 mL/min/kg	2 nM
CC(O)Cn1cc(Nc2ncc(Cl)c(NC3CC4CN(S(=O)(=O)CC5CC5)CC4C3)n2)cn1 (stereo not shown) [Ex. 46, 1-(4-((5-chloro-4-((2-((cyclopropylmethyl)sulfonyl)octahydrocyclopenta[c]pyrrol-5-yl)amino)pyrimidin-2-yl)amino)-1H-pyrazol-1-yl)propan-2-ol]	60.7 mL/min/kg	24.9%	277 ng·h/mL	15.6 min	1.13 L/kg	1 nM	–	–	–	–	–	10 nM
Cn1cc(Nc2ncc(Cl)c(NC3CC4CN(S(=O)(=O)NC5CC5)CC4C3)n2)cn1 (stereo not shown) [Ex. 34, 5-((5-chloro-2-((1-methyl-1H-pyrazol-4-yl)amino)pyrimidin-4-yl)amino)-N-cyclopropylhexahydrocyclopenta[c]pyrrole-2(1H)-sulfonamide]	48.8 mL/min/kg	54.0%	348 ng·h/mL	17.4 min	1.18 L/kg	0.8 nM	3 nM	35.7 min	48.6 mL/min/kg	17.8 min	140 mL/min/kg	1 nM

More lines, in order of falling IC50 [2], values ahead:

Clearance (CL) after iv dosing [1]	F [1]	AUC(0-t) [1]	half-life [1]	Vd [1]	IC50 [2]	IC50 [3]	half-life at 5 μM [4]	CLint scaled at 5 μM [4]	half-life at 5 μM [5]	CLint scaled at 5 μM [5]	IC50 [6]	Structure (SMILES)
60.8 mL/min/kg	31.4%	276 ng·h/mL	51.6 min	1.75 L/kg	1 nM	–	–	–	–	–	5 nM	CC(O)Cn1cc(Nc2ncc(Cl)c(NC3CC4CN(S(=O)(=O)C5CC5)CC4C3)n2)cn1 (stereo not shown) [Ex. 44, 1-(4-((5-chloro-4-((2-(cyclopropylsulfonyl)octahydrocyclopenta[c]pyrrol-5-yl)amino)pyrimidin-2-yl)amino)-1H-pyrazol-1-yl)propan-2-ol]
75.8 mL/min/kg	31.9%	231 ng·h/mL	24 min	2.02 L/kg	0.7 nM	2 nM	34 min	51.2 mL/min/kg	9.3 min	267 mL/min/kg	3 nM	CCNS(=O)(=O)N1CC2CC(Nc3nc(Nc4cnn(C)c4)ncc3Cl)CC2C1 (stereo not shown) [Ex. 24, 5-((5-chloro-2-((1-methyl-1H-pyrazol-4-yl)amino)pyrimidin-4-yl)amino)-N-ethylhexahydrocyclopenta[c]pyrrole-2(1H)-sulfonamide]
69.3 mL/min/kg	22.4%	239 ng·h/mL	42.6 min	2.37 L/kg	0.6 nM	–	–	–	–	–	7 nM	CC(O)Cn1cc(Nc2ncc(Cl)c(NC3CC4CN(S(=O)(=O)NC5CC5)CC4C3)n2)cn1 (stereo not shown) [Ex. 47, 5-((5-chloro-2-((1-(2-hydroxypropyl)-1H-pyrazol-4-yl)amino)pyrimidin-4-yl)amino)-N-cyclopropylhexahydrocyclopenta[c]pyrrole-2(1H)-sulfonamide]
